Laboratory results from patent publication US7183099B2, “Inhibitors of autoinducer transporters” (Princeton University, priority 2001, dated 2007).

Assays:
[1] = tested on: V. harveyi reporter strain BB170 (Sensor 1−, Sensor 2+); assay type: cell-based, Vibrio harveyi; conditions: candidates for the signal tested
Method: Cell-free culture fluids from E. coli, S. typhimurium and V. harveyi strains were tested for the presence of signaling substances that could induce luminescence in the V. harveyi reporter strain BB170 or BB886. […] Positive control wells contained 10 μl of cell-free culture fluid from strain V. harveyi BB152 (Autoinducer-1^−, Autoinducer-2^+) or V. harveyi BB120 (Autoinducer-1^+, Autoinducer-2^+). Negative control wells contained 10 μl of sterile growth medium. The microtiter dishes were shaken in a rotary shaker at 175 rpm at 30° C.
The cell density was measured by diluting the same aliquots of cells used for measuring luminescence, spreading the dilutions onto solid LM medium, incubating the plates overnight at 30° C., and counting the resulting colonies the following day. […] Cell-free culture supernatants from V. harveyi or S. typhimurium strains were added to a final concentration of 10% (v/v) at the time of the first measurement. In control experiments, 10% (v/v) of AB medium, LB medium or LB medium containing 0.5% glucose was added instead of cell-free culture fluids.

[2] = tested on: V. harveyi reporter strain BB886 (Sensor 1+, Sensor 2−); assay: V. harveyi BB886 luminescence stimulation bioassay; assay type: cell-based, Vibrio harveyi; conditions: non self-stimulating sensor-1+, sensor-2− mutant (BB886)
Method: Assay for production of signaling compounds. Cell-free culture fluids from E. coli, S. typhimurium and V. harveyi strains were tested for the presence of signaling substances that could induce luminescence in the V. harveyi reporter strain BB170 or BB886. In the assays, 10 μl of cell-free culture fluids from E. coli ABI157, E. coli DH5, and S. typhimurium LT2 strains grown and harvested as described above were added to 96-well microtiter dishes. The V. harveyi reporter strain BB170 or BB886 was grown for 16 h at 30° C. with aeration in AB medium, diluted 1:5000 into fresh AB medium, and 90 µl of the diluted cells were added to the wells containing the E. coli and S. typhimurium cell-free culture fluids. Positive control wells contained 10 μl of cell-free culture fluid from strain V. harveyi BB152 (Autoinducer-1^−, Autoinducer-2^+) or V. harveyi BB120 (Autoinducer-1^+, Autoinducer-2^+). Negative control wells contained 10 μl of sterile growth medium. […] Every hour, light production was measured using a Wallac Model 1450 Microbeta Plus liquid scintillation counter in the chemiluminescence mode. The V. harveyi cell density was measured by diluting the same aliquots of cells used for measuring luminescence, spreading the dilutions onto solid LM medium (Bassler et al., 1993, supra), incubating the plates overnight at 30° C., and counting the resulting colonies the following day. […]

Structure (SMILES)	activity (induction of luminescence expression in V. harveyi) [1]	lowest concentration to which the assay was sensitive [2] [nM]
CC(=O)O [acetate, reference compound]	None of these compounds has activity	
O=C(O)CCC(=O)C(=O)O [-ketoglutarate, reference compound]	None of these compounds has activity	
C[C@@H](O)CC(=O)N[C@H]1CCOC1=O [AI-1, N-(3-hydroxybutanoyl)-L-homoserine lactone, reference compound]		100
N[C@H]1CCOC1=O [homoserine lactone, reference compound]	None of these compounds has activity	
